# Experimental data as given in the supplement of paper PMC6045584.
# ± gives the standard deviation of the averaged measurements.
# Key:
# Assay in all cases: surviving fraction relative to DMSO-only wells; higher = less growth inhibition
# Conditions in all cases: exposure time: 5 days
# [1] = compound: CC(=O)NCC(=O)N1[C@@H]2CC[C@H]1c1ccc(Nc3ncc(C(F)(F)F)c(NC4CCC4)n3)cc12
# Outline: (§1)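 After seeding at 250–500 cells per well in 384-well plates and a 24-hour wait, log-phase tumour cell lines were exposed without interruption for five days to inhibitors at 0.5, 1, 5, 10, 50, 100, 500 and 1000 nM. CellTiter-Glo luminescence was recorded after 10 minutes at room temperature. Viability is reported as surviving fraction, the luminescence normalised to the median of DMSO-only wells.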
# [2] = compound: CC(=O)O[C@H]1C(=O)[C@@]2(C)[C@H]([C@H](OC(=O)c3ccccc3)[C@]3(O)C[C@H](OC(=O)[C@H](O)[C@@H](NC(=O)c4ccccc4)c4ccccc4)C(C)=C1C3(C)C)[C@]1(OC(C)=O)CO[C@@H]1C[C@@H]2O [PACLITAXEL]
# Outline: as §1
# [3] = compound: CC(=O)c1c(C)c2cnc(Nc3ccc(N4CCNCC4)cn3)nc2n(C2CCCC2)c1=O
# Outline: as §1
# [4] = compound: CC[C@@]1(O)C(=O)OCc2c1cc1n(c2=O)Cc2cc3ccccc3nc2-1 [CAMPTOTHECIN]
# Outline: as §1
# [5] = compound: COCC[n+]1c2c(n(Cc3cnccn3)c1C)C(=O)c1ccccc1C2=O [YM155]
# Outline: as §1
test system,measurement,setting,value
CAL120 BREAST,surviving fraction,[1]; 0.5 nM,0.923 ± 0.051
same,surviving fraction,[1]; 1 nM,0.9253 ± 0.0041
same,surviving fraction,[1]; 5 nM,0.945 ± 0.029
same,surviving fraction,[1]; 10 nM,0.9333 ± 0.0076
same,surviving fraction,[1]; 50 nM,0.8605 ± 0.0059
same,surviving fraction,[1]; 100 nM,0.643 ± 0.025
same,surviving fraction,[1]; 500 nM,0.489 ± 0.053
same,surviving fraction,[1]; 1000 nM,0.387 ± 0.047
same,surviving fraction,[2]; 0.5 nM,0.744 ± 0.044
same,surviving fraction,[2]; 1 nM,0.602 ± 0.022
same,surviving fraction,[2]; 5 nM,0.158 ± 0.014
same,surviving fraction,[2]; 10 nM,0.0937 ± 0.005
same,surviving fraction,[2]; 50 nM,0.105 ± 0.003
same,surviving fraction,[2]; 100 nM,0.0962 ± 0.0023
same,surviving fraction,[2]; 500 nM,0.0798 ± 0.0061
same,surviving fraction,[2]; 1000 nM,0.0923 ± 0.007
same,surviving fraction,[3]; 0.5 nM,0.953 ± 0.017
same,surviving fraction,[3]; 1 nM,0.965 ± 0.026
same,surviving fraction,[3]; 5 nM,0.9478 ± 0.0082
same,surviving fraction,[3]; 10 nM,0.9508 ± 0.0056
same,surviving fraction,[3]; 50 nM,1.01 ± 0.014
same,surviving fraction,[3]; 100 nM,0.974 ± 0.0098
same,surviving fraction,[3]; 500 nM,0.9508 ± 0.0081
same,surviving fraction,[3]; 1000 nM,0.935 ± 0.013
same,surviving fraction,[4]; 0.5 nM,0.901 ± 0.069
same,surviving fraction,[4]; 1 nM,0.819 ± 0.0086
same,surviving fraction,[4]; 5 nM,0.409 ± 0.033
same,surviving fraction,[4]; 10 nM,0.314 ± 0.035
same,surviving fraction,[4]; 50 nM,0.182 ± 0.011
same,surviving fraction,[4]; 100 nM,0.105 ± 0.0043
same,surviving fraction,[4]; 500 nM,0.0285 ± 0.0023
same,surviving fraction,[4]; 1000 nM,0.0287 ± 0.0014
same,surviving fraction,[5]; 0.5 nM,0.934 ± 0.049
same,surviving fraction,[5]; 1 nM,0.905 ± 0.073
same,surviving fraction,[5]; 5 nM,0.148 ± 0.021
same,surviving fraction,[5]; 10 nM,0.0712 ± 0.0018
same,surviving fraction,[5]; 50 nM,0.0243 ± 0.001
same,surviving fraction,[5]; 100 nM,0.0215 ± 0.00087
same,surviving fraction,[5]; 500 nM,0.016 ± 0.00087
same,surviving fraction,[5]; 1000 nM,0.023 ± 0.0017
